Data on eight compounds can be found in ChEMBL document CHEMBL1201862, “PubChem BioAssay data set” (2004).

Among the test systems are KM12; SF-268; OVCAR-8; SK-OV-3; MOLT-4; SNB-19; MDA-MB-435; M14; SF-539; SF-295; HT-29; OVCAR-3; MCF7; IGROV-1; MDA-MB-231; OVCAR-5; U-251; UACC-62; HL-60.
Common to all, as to experiment: NCI-60 cell line screen, 48 h

The structures appear in SMILES notation.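 Protocol summary: plate cells (96-well), add compound at 5 concentrations, incubate 48 h, interpolate endpoints linearly. GI50 = concentration required for 50% inhibition of growth.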 Calls of active or inactive are those of the source. Cut-off read from the data, not from the text of the source: active = GI50 up to about 1.1 µM and inactive = higher. Bounds are passed on as bounds.

With `CC(=O)Nc1ccc(/C=C/C(=O)N2CC(CCl)c3c2cc(N)c2ccccc32)cc1` (stereo unspecified), the GI50 is 0.0064 µM (active) in the experiment on KM12; < 0.005 µM (active) in the experiment with SF-268; < 0.005 µM (active) in the experiment on OVCAR-8; 0.0091 µM (active) in the experiment with SK-OV-3; < 0.005 µM (active) with MOLT-4; < 0.005 µM (active) in the experiment on SNB-19. Moreover, the GI50 in the experiment with MDA-MB-435 was 0.00767 µM (active); with M14, < 0.005 µM (active); with SF-539 it was < 0.005 µM (active); with SF-295, < 0.005 µM (active); in the experiment on HT-29, < 0.005 µM (active); in the experiment with OVCAR-3, 0.0127 µM (active). Besides, the GI50 in the experiment on MCF7, in the experiment on IGROV-1, with MDA-MB-231, in the experiment on OVCAR-5, with U-251 and in the experiment with UACC-62 was < 0.005 µM (active) each time.
In the case of `CN1C[C@H]2[C@@H](C1=O)[C@H](c1ccccc1)ON2C`, the GI50 in the experiment on OVCAR-8, with SK-OV-3, with MOLT-4, in the experiment on SNB-19, in the experiment with MDA-MB-435 and in the experiment on M14 was > 100 µM (inactive) in each case. Also, the GI50 is > 100 µM (inactive) in the experiment on SF-295; > 10 µM (inactive) in the experiment with HL-60; > 100 µM (inactive) in the experiment with HT-29; > 100 µM (inactive) in the experiment on OVCAR-3; > 100 µM (inactive) in the experiment with MCF7; > 100 µM (inactive) in the experiment with IGROV-1. Moreover, the GI50 with MDA-MB-231, with OVCAR-5 and in the experiment with U-251 was > 100 µM (inactive) throughout.
`Cc1nnc2sc(N/N=C/c3ccccc3)nn12`: the GI50 with KM12 is > 100 µM (inactive); with SF-268 it was 61.2 µM (inactive); in the experiment on OVCAR-8, > 100 µM (inactive); in the experiment on SK-OV-3, 27.4 µM (inactive); with MOLT-4, > 100 µM (inactive); with SNB-19, > 100 µM (inactive). Besides, the GI50 with MDA-MB-435, in the experiment with M14, in the experiment with SF-539, in the experiment with SF-295, in the experiment with HT-29 and with OVCAR-3 was > 100 µM (inactive) in each case. Moreover, the GI50 was > 100 µM (inactive) in the experiment on MCF7; > 100 µM (inactive) in the experiment with IGROV-1; > 100 µM (inactive) with MDA-MB-231; > 100 µM (inactive) with OVCAR-5; > 100 µM (inactive) in the experiment with U-251; 23.5 µM (inactive) in the experiment with UACC-62.
As to `N#C/C(=C\c1ccc(Br)cc1)c1nc(-c2cc3ccccc3oc2=O)cs1`, the GI50 in the experiment on KM12 is 19.1 µM (inactive); in the experiment with SF-268, 14.5 µM (inactive); with OVCAR-8, 15.9 µM (inactive); in the experiment with SK-OV-3 it was 18.9 µM (inactive); in the experiment with MOLT-4, > 50 µM (inactive); with SNB-19 it was 10.7 µM (inactive). The GI50 was 23.5 µM (inactive) with MDA-MB-435; 14.9 µM (inactive) with M14; 14 µM (inactive) in the experiment with SF-539; 18.5 µM (inactive) with SF-295; > 50 µM (inactive) in the experiment on HL-60; 23.3 µM (inactive) in the experiment on HT-29. Further, the GI50 was 18.4 µM (inactive) in the experiment on MCF7; 12.3 µM (inactive) with IGROV-1; 10.1 µM (inactive) with MDA-MB-231; 31 µM (inactive) in the experiment with OVCAR-5; 9.93 µM (inactive) with U-251; 10.2 µM (inactive) with UACC-62.
Turning to `CC1=C2C(=C[C@H]3[C@]4(C)CCCC(C)(C)[C@H]4CC[C@]34O[C@H]24)OC1=O`, the GI50 in the experiment with KM12, with SF-268, in the experiment with SK-OV-3, in the experiment on MOLT-4, with SNB-19 and with MDA-MB-435 was > 100 µM (inactive) each time. Moreover, the GI50 with M14, in the experiment with SF-295, with HT-29, in the experiment with MCF7, in the experiment with IGROV-1 and with MDA-MB-231 was > 100 µM (inactive) throughout. Also, the GI50 in the experiment on OVCAR-5, in the experiment on U-251 and in the experiment on UACC-62 was > 100 µM (inactive) in each case.
For the compound `CC1(C)CNC(=O)C2(/C=N/C(C)(C)CNC(=O)C3(/C=N/1)CCCO3)CCCO2` (stereo unspecified), the GI50 with KM12, in the experiment with SF-268, in the experiment with OVCAR-8, in the experiment with SK-OV-3, in the experiment on MOLT-4 and with SNB-19 was > 10 µM (inactive) each time. Besides, the GI50 in the experiment with MDA-MB-435, in the experiment on M14, with SF-539, in the experiment on SF-295, in the experiment with HL-60 and in the experiment on HT-29 was > 10 µM (inactive) throughout. In addition, the GI50 in the experiment on OVCAR-3, in the experiment with MCF7, in the experiment with IGROV-1, in the experiment on MDA-MB-231, with U-251 and with UACC-62 was > 10 µM (inactive) each time.
As for `CC(C)(C)[Si](C)(C)OCC1CCC(n2cnc3c(N)ncnc32)O1` (stereo unspecified), the GI50 in the experiment on KM12 is 39.1 µM (inactive); in the experiment with OVCAR-8, 45.4 µM (inactive); in the experiment with SK-OV-3, 65 µM (inactive); in the experiment with MOLT-4 it was 14.7 µM (inactive); in the experiment on SNB-19, > 100 µM (inactive); in the experiment on MDA-MB-435 it was 25.9 µM (inactive). In addition, the GI50 with M14 is 38.8 µM (inactive); in the experiment on SF-295, 81.8 µM (inactive); in the experiment on HL-60, 48.9 µM (inactive); in the experiment with HT-29, 94.4 µM (inactive); with OVCAR-3, 48.9 µM (inactive); in the experiment on IGROV-1 it was 53.8 µM (inactive). Moreover, the GI50 in the experiment with MDA-MB-231 is 54.1 µM (inactive); in the experiment on OVCAR-5 it was > 100 µM (inactive); with U-251, > 100 µM (inactive); with UACC-62 it was 59.2 µM (inactive).
Regarding `COc1cc(C2c3[nH]c4ccccc4c3[C@@H](Nc3ccc(F)cc3)[C@H]3COC(=O)N23)cc(OC)c1O` (stereo partly specified), the GI50 was 1.91 µM (inactive) in the experiment with KM12; 1.55 µM (inactive) in the experiment on SF-268; 2.7 µM (inactive) with OVCAR-8; 1.1 µM (active) with SK-OV-3; 0.287 µM (active) with MOLT-4; 1.26 µM (inactive) in the experiment on SNB-19. Further, the GI50 was 2.5 µM (inactive) in the experiment on MDA-MB-435; 2.02 µM (inactive) in the experiment with M14; 1.26 µM (inactive) with SF-539; 0.794 µM (active) with SF-295; 3.12 µM (inactive) with HT-29; 1.92 µM (inactive) in the experiment on OVCAR-3. The GI50 with MCF7 is 0.622 µM (active); with IGROV-1, 1.32 µM (inactive); with MDA-MB-231, 3.44 µM (inactive); in the experiment with OVCAR-5, 1.79 µM (inactive); in the experiment on U-251, 1.45 µM (inactive); with UACC-62, 1.37 µM (inactive).
